Series [1] is described as follows: aqueous solubility (concentration at saturation). The series is classed as physicochemical. As to conditions: water, read-out: Conc. at Saturation.
Another series in a line: partition coefficient. The series is classed as physicochemical.

The structures appear in SMILES notation. Converted amounts (≈) assume the structure as drawn. Read-outs that look alike come from different tables or passages of the source.

On to `CN(CC(=O)OCc1ccccc1)C(=N)N` [Creatine Benzyl Ester, creatine benzyl ester], for which the solubility in series [1] is 89.26 ± 0.8 mg/mL (≈ 403 mM). In the series “partition coefficient”, the lipophilicity (logP) was -0.975.

On to `CCOC(=O)CN(C)C(=N)N` [Creatine Ethyl Ester, creatine ethyl ester], for which the solubility in series [1] is 205.9 ± 1.5 mg/mL (≈ 1290 mM). Also, the logP in the series “partition coefficient” was -1.13. In addition, the “flux over one hour” value in the series with MDCK monolayers (MDCK) is “approximately 20%”.

Turning to `CN(CC(=O)O)C(=N)N.O` [creatine monohydrate, reference compound], in “partition coefficient” (studies in the laboratory), the log partition coefficient (logP) was -1.82. In addition, the “flux over one hour” value with MDCK monolayers (MDCK monolayers, 60-minute period, share of the amount added that crossed to the other side) is recorded as “approximately 10%”.

One may read the logP as the decadic logarithm of the partition coefficient of the neutral form, usually between octanol and water. A high value points to a more lipophilic compound.

For the origin of these results see patent publication EP1324760B1 (Board of Regents of the University of Nebraska, priority 2000, dated 2002).
